From patent publication US20230146455A1, “TREATMENT OF INFLAMMATORY DISEASES WITH PEPTIDES AND PHARMACEUTICAL COMPOSITIONS” (Yuyu Pharma, Inc., priority 2020, published 2023)

Tests used:
[1] = system: CIA-induced Rheumatoid Arthritis; assay: Mouse CIA-induced Rheumatoid Arthritis Model: body weight, hind paw thickness, clinical score (Example 13); type: in vivo; details: CII-injected mice
Description: Clinical score: 0—no change; 1—swelling and erythema of the digit; 2—mild swelling and erythema of the limb; 3—gross swelling and erythema of the digit; 4—gross deformity and inability to use the limb.

[2] = system: IL-6 cytokine release in poly I:C stimulated primary human corneal epithelial cells; assay: Soluble IL-6 cytokine release in poly I:C stimulated primary human corneal epithelial cells by ELISA (Example 2); type: cell-based; details: 30, 10, 1, 0.1, 0.01, 0.001 μM, 25 μg/mL poly I:C, 24 hours
Method: Assay protocol as shown below was used to determine the significant effect of test compounds. The data was statistically analyzed by one-way ANOVA with a Bonferroni post test comparing all the columns. The significance was represented by the p value.
Selected YDE peptides (YDE-093, -096, -100, -101, -102, -103, -104, -105, -106 and -107) were evaluated by assessing the soluble IL-6 cytokine release in poly I:C stimulated primary human corneal epithelial cells by ELISA (Biolegend, 430504).
Specifically, primary corneal epithelial cells (ATCC, ATCC PCS-700-010) were seeded on a 6-well culture plate containing the Corneal Epithelial Cell Basal Medium (ATCC, ATCC PCS-700-030) in the Corneal Epithelial Cell Growth Kit (ATCC, ATCC PCS-700-040) in an amount of 1.2×10^5 cells per well, which was then cultured for 24 hours under the conditions of 37° C. and 5% CO2. Then, cells were washed with 1×PBS and replaced with serum free medium which was then cultured for 2 hours under the conditions of 37° C. and 5% CO2.
After 2 hours, cells were treated with compounds at 6 differential concentrations (Hinokitiol/YDE peptides at 30, 10, 1, 0.1, 0.01, and 0.001 μM) with the DMSO final 0.5% and then cultured for 1 hour under the conditions of 37° C. and 5% CO2.
After 1 hour, cells were further treated with 25 μg/mL of poly I:C and cultured for 24 hours under the conditions of 37° C. and 5% CO2.
Following incubation, the supernatant was collected for IL-6 levels was assessed by Sandwich ELISA (Enzyme-linked immunosorbent assay) following manufacturer's instructions. The data was statistically analyzed by one-way ANOVA with a Bonferroni post-test comparing all the columns. The significance was represented by the p value.

[3] = system: IL-1beta, IL-6, IL-8, MIP-1alpha, MIP-1beta, RANTES, and TNF-alpha release in poly I:C stimulated primary human corneal epithelial cells; assay: Panel of soluble proteins release in poly I:C stimulated primary human corneal epithelial cells by Multiplex (Example 4); type: cell-based; details: for IL-6, MFI Mean±SD: Stimulated 14801±407, p<0.05
Description: (§1) To determine the effect of compound by assessing the panel of soluble proteins release in poly I:C stimulated primary human corneal epithelial cells by Multiplex. • Test System: Primary Human Corneal Epithelial cells • Assay Format: 96-well plate format • Method of Detection: Enzyme-linked immunosorbent assay • Assay Controls: Hinokitiol Assay protocol as described below was used to determine the significant effect of test compounds. The data was statistically analyzed by one-way ANOVA with a Bonferroni post test comparing all the columns. The significance was represented by the p value.

NF-kB (p65) = NF-kB (p65) transcription activity in poly I:C stimulated primary human corneal epithelial cells (Example 5); type: cell-based
Description: as §1, with “YDE053 on NF-kB (p65) transcription activity” for “compound by assessing the panel of soluble proteins release”, “cells. Study Plan” for “cells by Multiplex.”, “shown” for “described”

[4] = system: IL-6 cytokine release in poly I:C stimulated primary human corneal epithelial cells; assay: Soluble IL-6 cytokine release in poly I:C stimulated primary human corneal epithelial cells by ELISA (Example 6); type: cell-based
Description: as §1, with “the” for “the panel of”, “IL-6 cytokine” for “proteins”, “ELISA.” for “Multiplex.”, “shown” for “described”

[5] = system: primary corneal epithelial cells; assay: Cell proliferation of primary corneal epithelial cells (CellTiter-Glo, Example 3); type: cell-based, human
Method: • Test System: HCE cells from ATCC. • Assay Format: 96-well plate format • Method of Detection: CellTiter-Glo Luminescent Cell Viability Assay (Pro mega, Cat #G7573) • Assay Controls: Reference compound (hEGF) and untreated cells • Test Samples: 57 • Media: Corneal Epithelial Cell Basal Medium+Cell growth kit components EXPERIMENTAL DESIGN
Specifically, 5000 primary corneal epithelial cells/well were seeded in a white opaque 96-well plate and incubated for 24 hrs in a 37° C. incubator supplemented with 5% CO2. After 24 hours, test compounds were treated at 8 different concentrations. Cells treated with compounds were incubated for 48 & 72 hrs at 37° C. in a 5% CO2 incubator. Post appropriate incubation time points, CellTiter-Glo luminescent reagent (Promega, Cat #G7573) was added to the plates and incubated at room temperature for 30 min. Luminescence signal was captured using EnVision^2104® Multilabel reader. Assay controls were reference compound (hEGF) and untreated cells.

Molecule: C[C@@H]1C[C@H]2[C@@H]3CCC4=CC(=O)C=C[C@]4(C)[C@@]3(F)[C@@H](O)C[C@]2(C)[C@@]1(O)C(=O)CO [dexamethasone]
- body weight (in words) [1]: lead to a decease in body weight in mice

Molecule: CC(C)c1cccc(=O)c(O)c1 [Hinokitiol]
- Poly I:C induced IL-6 cytokine release (in words) [2]: significantly attenuate the Poly I:C stimulated IL-6 cytokine release in a dose dependent manner
- Poly I:C stimulated cytokines release (IL-1beta, IL-6, IL-8, MIP-1alpha, MIP-1beta, RANTES, and TNF-alpha) (in words) ([3]; Multiplex): significantly attenuate the Poly I:C stimulated cytokines release
- IL-6, MFI Mean±SD ([3]; Stimulated + 1 μM): 7004±376
- IL-6, MFI Mean±SD ([3]; Stimulated + 10 μM): 7011±471
- IL-6, MFI Mean±SD ([3]; Stimulated + 30 μM): 6759±500
- phosphorylation of (p65) NF-kB in Poly I:C stimulated cells (in words) (NF-kB (p65)): significantly attenuate the phosphorylation of (p65) NF-kB in Poly I:C stimulated cells in a dose dependent manner
- Poly I:C induced IL-6 cytokine release (in words) [4]: significantly attenuate the Poly I:C stimulated IL-6 cytokine release in a dose dependent manner

Molecule: Human epidermal growth factor (NSDSECPLSHDGYCLHDGVCMYIEALDKYACNCVVGYIGERCQYRDLKWWELR; UniProt P01133 971-1023, looked up) [hEGF]
- cell proliferation (in words) ([5]; 48 hrs or 72 hrs, 30 to 0.01 μM): Concentration dependent proliferation of primary corneal epithelial cells
- maximum proliferation ([5]; highest tested concentration of 30 μM, 48 hrs): ~40%
